Experiments:
[1] = test system: various cancer cell lines; test: Killing of various cancer cell lines compared with normal fibroblast cells; assay type: cell-based, human; conditions: MiaPaca-2, MDA-MB-231, PC-3, HT-1080, Caco2 versus normal fibroblast cells
From the text: Therapeutic universality of selenocoxib-1-GSH for killing cancer cells is examined by treating pancreatic (MiaPaca-2), breast (MDA-MB-231), prostate (PC-3) or sarcoma (HT-1080) and colon (Caco2) cell. lines with the drug and establishing the IC50 for each cell line, Table III. Selenocoxib-1-GSH kills the various cancer cell lines at 2-3-fold lower concentrations than normal fibroblast cells.

[2] = test system: 1205 Lu melanoma cells; test: Cell proliferation ELISA BrdU; assay type: cell-based, human; conditions: 72 h, increasing concentrations
From the text: (§1) Data represent averages of at least 3 independent experiments; bars; S.E.M.
(§2) Percentage of proliferating and apoptotic cells are quantified by a colorimetric using cell proliferation ELISA BrdU kit (Roche Applied Sciences, Indianapolis, Ind.) and Apo-ONE Homogenous caspase-3/7 assay kit (Promega, Madison Wis.), as described in Sharma A, et al., Clin Cancer Res 2009; 15:1674-85; and Madhunapantula S V, et al., Mal Cancer Ther 2008; 7:1297-308.

[3] = test system: UACC 903 melanoma cells; test: Cell proliferation ELISA BrdU; assay type: cell-based, human; conditions: UACC 903, 72 h, increasing concentrations
From the text: as §1, §2

[4] = test system: 1205 Lu melanoma cells; test: Apo-ONE caspase-3/7 assay (apoptosis); assay type: cell-based, human; conditions: 72 h, dose dependent up to 25 μmol/L
From the text: as §1

[5] = test system: UACC 903 melanoma cells; test: Apo-ONE caspase-3/7 assay (apoptosis); assay type: cell-based, human
From the text: as §1

[6] = test system: 1205 Lu tumors; assay type: in vivo, athymic-Foxn1nu nude mice
Description: (§3) Tumor kinetics are measured by subcutaneous injection of 1×10^6 1205 Lu or UACC 903 cells in 0.2 mL of DMEM supplemented with 10% FBS subcutaneously injected above both left and right rib cages of 3- to 4-wk-old female athymic-Foxn1^nu nude mice (Harlan Sprague Dawley, IN).

[7] = test system: UACC 903 tumors; assay type: in vivo, athymic-Foxn1nu nude mice
Description: as §3

[8] = Toxicity assessments: blood markers and H&E of vital organs; assay type: in vivo
Description: Four to six week old athymic-Foxn1^nu nude mice (Harlan Sprague Dawley, IN), are treated with either vehicle control or selenocoxib-1-GSH (n=5) as described in tumor kinetics studies. At the end of treatment, blood is collected from each sacrificed animal in a plasma separator tube with lithium heparin (BD Microtainer) following cardiac puncture and analyzed for ALKP (Alkaline phosphatase), ALT (Alanine aminotransferase), AST (Aspartate aminotransferase), ALB (Total albumin), TBIL (Total bilirubin), CREA (Creatinine), BUN (Blood urea nitrogen), CHOL (Total cholesterol), TRIG (Total triglyceride) and GLU (Glucose) levels to ascertain possible liver, heart, kidney, and pancreas related toxicity. A portion of vital organs, liver, heart, kidney, pancreas, and spleen-from each animal is formalin-fixed and paraffin-embedded to examine toxicity-associated changes in cell morphology and tissue organization following H&E staining as described in Nguyen N, et al. Cancer Prev Res (Phila) 2011; 4: 248-58.

[9] = test system: 1205 Lu melanoma cells; test: Western blot analysis; assay type: cell-based, human
From the text: (§4) Cell lysates are harvested and processed as described in Sharma A et al., Cancer Res 2006, 66:8200-9. […] Protein lysates are collected for Western blotting. Blots are probed with total and phospho-Akt (Ser473), phospho-PRAS40 (Thr246), phospho-Erk1/2 (Thr202/Tyr204), total and Phospho-Mek1/2 (Ser217) and cleaved PARP from Cell Signaling Technology (Danvers, Mass.). Total PRAS40 from Invitrogen (Carlsbad, Calif.). Total Erk, cyclin D1, p27, Alpha-enolase and secondary antibodies conjugated with horseradish peroxidase from Santa Cruz Biotechnology (Santa Cruz Biotechnology, Santa Cruz, Calif.). COX-1 and COX-2 antibodies were obtained from Cayman Chemical Company, Ann Arbor, Mich. Immunoblots are developed using the enhanced chemiluminescence detection system (Amersham Pharmacia Biotech, Piscataway, N.J.).

[10] = test system: UACC 903 melanoma cells; test: Western blot analysis; assay type: cell-based, human
From the text: as §4

[11] = test system: 1205 Lu melanoma cells; test: Reactive oxygen species (ROS) assay; assay type: cell-based, human; conditions: 5, 10, 15 and 20 μmol/L, 24 hours, compared to celecoxib and selenocoxib-1
Description: (§5) Intracellular ROS are monitored according to a procedure described in detail in Smasundaram et al., Cancer Res., 62:3868-3875, 2002. […] After 24 hours treatment, total cells (floating and adherent) are collected in ice-cold phosphate-buffered saline and 5×10^3 cells/well placed in 100 microliters culture medium in a 96-well plate containing 10 micromoles/liter 2′,7′-dichlorfluorescein-diacetate (commercially available from Sigma, St. Louis, Mo.) and incubated at 37° C. for 30 minutes. The amount of ROS present compared to DMSO vehicle treated cells was represented in arbitrary units.
(§6) Selenocoxib-1-GSH inhibits the generation of ROS.

[12] = test system: UACC 903 melanoma cells; test: Reactive oxygen species (ROS) assay; assay type: cell-based, human; conditions: 5, 10, 15 and 20 μmol/L, 24 hours, compared to celecoxib and selenocoxib-1
Description: as §5, §6

NC(CCC(=O)NC(CS[Se]Cc1cc(-c2ccccc2)n(-c2ccc(S(N)(=O)=O)cc2)n1)C(=O)NCC(=O)O)C(=O)O (stereo not shown) [Selenocoxib-1-GSH, selenocoxib-1-glutathione]
lower concentrations killing cancer cell lines than normal fibroblast cells [1]: 2-3 fold
cell proliferation (BrdU incorporation) [2]: reduces proliferation
cell proliferation (BrdU incorporation) [3]: reduces proliferation
caspase-3/7 activity [4]: increases caspase-3/7 activity
caspase-3/7 activity ([5]; UACC 903, 50 μmol/L, 72 h): significant decrease
caspase-3/7 activity ([5]; UACC 903, 72 h, dose dependent up to 25 μmol/L): increases caspase-3/7 activity
day from which a significant decrease in xenograft tumor development is observed ([6]; 1205 Lu tumors, compared to vehicle DMSO): 16 days
decrease in tumor volume ([6]; 1205 Lu, at the end of treatment, compared to controls): ≤ 70%
reduction of tumor development ([6]; 1205 Lu, 0.127 μmoles (10 ppm selenium) intraperitoneally on alternate days for 4 weeks, compared to DMSO control): 70.5%
decrease in tumor volume ([7]; UACC 903, at the end of treatment, compared to controls): ≤ 70%
reduction of tumor development ([7]; UACC 903, 0.127 μmoles (10 ppm selenium) intraperitoneally on alternate days for 4 weeks, compared to DMSO control): 52%
day from which a significant decrease in xenograft tumor development is observed ([7]; UACC 903 tumors, compared to vehicle DMSO): 22 days
H&E stained tissue sections of liver, heart, lung, kidney or spleen ([8]; at the end of treatment, versus DMSO vehicle): no changes in the morphology or architecture
levels of blood markers for major organ related toxicity (ALKP, ALT, AST, ALB, TBIL, CREA, BUN, CHOL, TRIG, GLU) ([8]; mouse, in vivo): negligible differences compared to controls
cleaved PARP protein [9]: elevates levels of cleaved PARP protein
expression of cyclin-D1 [9]: inhibits the expression of cyclin-D1
levels of p27 [9]: increases the levels of p27
pErk1/2 levels ([9]; 15 and 20 μmol/L): increased pErk1/2 levels
pPRAS40 ([9]; 72 h): reduces expression
Akt phosphorylation ([9]; 72 h, increasing concentrations, compared to celecoxib): inhibited the Akt phosphorylation in a dose dependent manner
cleaved PARP protein ([10]; UACC 903): elevates levels of cleaved PARP protein
expression of cyclin-D1 ([10]; UACC 903): inhibits the expression of cyclin-D1
levels of p27 ([10]; UACC 903): increases the levels of p27
pErk1/2 levels ([10]; UACC 903, 15 and 20 μmol/L): increased pErk1/2 levels
pPRAS40 ([10]; UACC 903, 72 h): reduces expression
Akt phosphorylation ([10]; UACC 903, 72 h, increasing concentrations, compared to celecoxib): inhibited the Akt phosphorylation in a dose dependent manner
ROS [11]: more dramatically decreased ROS
ROS [12]: more dramatically decreased ROS

— patent US9918966B2, “Anti-cancer compositions and methods” (The Penn State Research Foundation, priority 2013, dated 2018)
